Data from PubChem BioAssay (NCI).
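Dose response: 5 concentrations. Exposure: 48 h. Format: 96-well plates. Endpoint: linear interpolation; highest concentration if not reached. The concentration for full growth arrest is given as TGI.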

Key:
Experiment in all cases: NCI tumour cell line growth inhibition, 48 h
[1] = system: DMS 273 small cell lung
[2] = system: HOP-18 NSCLC
[3] = system: SNB-78 CNS
[4] = system: RXF-631 renal

Compound | TGI [1] | TGI [2] | TGI [3] | TGI [4]
NC(=O)C(N)=O | > 100 µM | > 100 µM | > 100 µM | 
N#CN=C(N)NC(=O)/C=C/C=C/c1ccc(Cl)cc1 | > 100 µM | > 100 µM | > 100 µM | 
C#CCOc1c(C(=O)OCC)c(=O)n(C)c2ccccc12 |  | > 100 µM | > 100 µM | > 100 µM
CC(C)(C)N1C(C(=O)c2ccccc2)C1c1ccccc1 (stereo not given) | > 100 µM |  | > 100 µM | > 100 µM
CCOC(=O)C12CCC(=O)C=C1[C@@H](C)C(=O)CC2 (stereo not given in full) | > 100 µM |  |  | 
COc1ccc(C[C@H](N)C(=O)NC2C(CO)OC(n3cnc4c(N(C)C)ncnc43)C2O)cc1 (stereo not given in full) | 1.51 µM |  | 0.758 µM | 
